Experimental data reported in ChEMBL document CHEMBL1926553, “Synthesis and antitumor activity of conjugates of 5-Fluorouracil and emodin” (Eur J Med Chem, 2012).
pIC50: −log10 of the molar value.

Experiments:
[1] = Cytotoxicity against human HO8910 cells after 2 days by alamar blue assay; format: functional, cell-based; details: HO-8910, 48 h
[2] = system: SGC-7901; assay: Cytotoxicity against human SGC7901 cells after 2 days by alamar blue assay; format: functional, cell-based; details: SGC-7901, 48 h
[3] = system: HepG2; assay: Cytotoxicity against human HepG2 cells after 2 days by alamar blue assay; format: functional, cell-based; details: HepG2, 48 h
[4] = system: HEK293; assay: Cytotoxicity against human HEK293 cells after 2 days by alamar blue assay; format: cell-based; details: HEK293, 48 h
[5] = system: SGC-7901; assay: Ratio of emodin IC50 to compound IC50 for human SGC7901 cells after 2 days by alamar blue assay; format: functional
[6] = Ratio of compound IC50 to 5-Fluorouracil IC50 for human HEK293 cells after 2 days by alamar blue assay; format: ADME, cell-based; details: read-out: Ratio IC50
[7] = Ratio of compound IC50 to emodin IC50 for human HEK293 cells after 2 days by alamar blue assay; format: ADME, cell-based; details: read-out: Ratio IC50

Structure (SMILES) | pIC50 [1] | pIC50 [2] | pIC50 [3] | pIC50 ([4]; read-out: IC50) | Ratio IC50 [5] | selectivity ratio at 48 h [6] | selectivity ratio at 48 h [7] | pIC50 [4]
COc1cc(OC)c2c(c1)C(=O)c1cc(C)c(Cn3cc(F)c(=O)[nH]c3=O)c(OC)c1C2=O | < 4.00 | < 4.00 | < 4.00 | < 4.00 | – | – | – | –
COc1cc(OC)c2c(c1)C(=O)c1cc(C)c(Cn3cc(F)c(=O)n(C)c3=O)c(OC)c1C2=O | < 4.00 | < 4.00 | < 4.00 | – | – | – | – | –
CCn1c(=O)c(F)cn(Cc2c(C)cc3c(c2OC)C(=O)c2c(OC)cc(OC)cc2C3=O)c1=O | < 4.00 | < 4.00 | < 4.00 | – | – | – | – | –
CCCCn1c(=O)c(F)cn(Cc2c(C)cc3c(c2OC)C(=O)c2c(OC)cc(OC)cc2C3=O)c1=O | < 4.00 | < 4.00 | < 4.00 | – | – | – | – | –
C/C=C/Cn1c(=O)c(F)cn(Cc2c(C)cc3c(c2OC)C(=O)c2c(OC)cc(OC)cc2C3=O)c1=O | < 4.00 | < 4.00 | < 4.00 | – | – | – | – | –
COc1cc(OC)c2c(c1)C(=O)c1cc(C)c(Cn3cc(F)c(=O)n(CC=C(C)C)c3=O)c(OC)c1C2=O | < 4.00 | < 4.00 | < 4.00 | – | – | – | – | –
COc1cc(OC)c2c(c1)C(=O)c1cc(C)c(Cn3cc(F)c(=O)n(Cc4ccccc4)c3=O)c(OC)c1C2=O | 4.35 | 4.40 | < 4.00 | < 4.00 | 1.5 | – | – | –
COc1cc(OC)c2c(c1)C(=O)c1cc(C)c(Cn3cc(F)c(=O)n(CCc4ccccc4)c3=O)c(OC)c1C2=O | 4.94 | < 4.00 | 4.16 | 5.34 | – | – | – | –
COc1cc(OC)c2c(c1)C(=O)c1cc(C)c(Cn3cc(F)c(=O)n(Cc4ccc5c(c4)OCO5)c3=O)c(OC)c1C2=O | < 4.00 | < 4.00 | 4.04 | 4.52 | – | – | – | –
COc1cc(OC)c2c(c1)C(=O)c1cc(C)c(Cn3cc(F)c(=O)n(Cc4ccccc4F)c3=O)c(OC)c1C2=O | 4.04 | 4.21 | < 4.00 | 4.18 | – | 1.5 | – | –
COc1cc(OC)c2c(c1)C(=O)c1cc(C)c(Cn3cc(F)c(=O)n(Cc4cccc(F)c4)c3=O)c(OC)c1C2=O | < 4.00 | < 4.00 | < 4.00 | < 4.00 | – | – | – | –
COc1cc(OC)c2c(c1)C(=O)c1cc(C)c(Cn3cc(F)c(=O)n(Cc4ccccc4C#N)c3=O)c(OC)c1C2=O | 4.65 | 4.67 | 4.40 | 4.53 | 3 | – | 23 | –
Cc1cc(O)c2c(c1)C(=O)c1cc(O)cc(O)c1C2=O [EMODIN] | 4.80 | 4.21 | 4.88 | 5.89 | – | – | – | –
O=c1[nH]cc(F)c(=O)[nH]1 [FLUOROURACIL] | 4.07 | 4.12 | 4.12 | – | – | – | – | 4.37
